Source: ChEMBL document CHEMBL5214933, “Discovery of Selenium-Containing STING Agonists as Orally Available Antitumor Agents” (J Med Chem, 2022)
Calls of active or inactive are those of the source. The calls are words filed in the database; no cut-off is given here.

Legend:
[1] = target: T1, Stimulator of interferon genes protein (Mus musculus) (UniProt Q3TBT3); assay: Agonist activity at STING in mouse RAW264.7 cells harboring IRF-inducible luciferase reporter construct assessed as increase in […] mRNA expression at 10 to 50 uM measured after 1 hr by qRT-PCR analysis; assay type: cell-based; conditions: filed as agonist, dose 10-50 µM
T1 sequence (whole entry): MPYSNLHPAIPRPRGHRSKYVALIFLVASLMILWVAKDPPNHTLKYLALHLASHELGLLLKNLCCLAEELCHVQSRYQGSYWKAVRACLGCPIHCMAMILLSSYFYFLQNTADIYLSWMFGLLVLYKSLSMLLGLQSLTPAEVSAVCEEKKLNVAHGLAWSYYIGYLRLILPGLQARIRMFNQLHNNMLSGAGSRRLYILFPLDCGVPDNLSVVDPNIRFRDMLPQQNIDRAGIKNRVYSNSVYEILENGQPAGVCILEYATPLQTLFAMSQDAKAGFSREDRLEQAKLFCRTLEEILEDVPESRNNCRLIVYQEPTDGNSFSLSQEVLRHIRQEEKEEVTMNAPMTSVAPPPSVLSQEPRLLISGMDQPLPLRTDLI

4T1 = assay: Antitumor activity against mouse 4T1 cells implanted in naive BALB/c mouse assessed as increase in Ki67-positive CD4 T cells in tumor at 20 mg/kg, po administered once every 5 days by FACS analysis (reference value: 4.4%); assay type: functional; conditions: time 5 day
hERG = hERG (Homo sapiens, UniProt Q12809); assay: Inhibition of hERG expressed in HEK293 cells at 10 uM incubated for 5 mins by QPatch automated patch-clamp technique relative to control; assay type: toxicity, cell-based; conditions: HEK293 cells that express hERG
[2] = Permeability of the compound in PBS buffer incubated for 5 hrs by PAMPA-based LC-MS/MS analysis; assay type: ADME; conditions: read-out: permeability
Mus musculus [3] = assay: Immunostimulatory activity in naive […] mouse implanted with mouse MC38 cells assessed as increase in NKT cells in spleen at 30 mg/kg, po by FACS analysis; assay type: functional, organism-based; conditions: MC-38
Mus musculus [4] = assay: Immunostimulatory activity in naive […] mouse implanted with mouse MC38 cells assessed as increase in T cells in spleen at 30 mg/kg, po by FACS analysis; assay type: functional, organism-based; conditions: MC-38
[5] = Stability in rat liver microsomes assessed as parent compound remaining at 1 uM incubated for 2 hrs in presence of NADPH by LC-MS/MS analysis; assay type: ADME, Microsome; conditions: read-out: Stability
[6] = Stability in rat plasma assessed as interconversion into (S)-4-(5,6-Dimethoxybenzo[b]selenophen-2-yl)-2-ethyl-4-oxobutanoic acid incubated for 24 hrs by normal-phase HPLC analysis; assay type: ADME, cell-free
Mus musculus [7] = assay: Immunostimulatory activity in naive […] mouse implanted with mouse MC38 cells assessed as increase in CD69-positive CD8 T cells in spleen at 30 mg/kg, po by FACS analysis (reference value: 8.9 %); assay type: functional, MC-38
[8] = Cmax in Sprague-Dawley rat at 50 mg/kg, po measured for 1440 mins by LC-MS/MS analysis; assay type: ADME, organism-based; set-up: time 1440 min, dose 50 mg/kg, route po; conditions: in vivo
[9] = target: T2, Stimulator of interferon genes protein (Homo sapiens, UniProt Q86WV6); assay: Agonist activity at STING in human THP-1 cells assessed as increase in CXCL10 mRNA expression at 10 uM measured after 3 hrs by qRT-PCR analysis; assay type: cell-based; conditions: filed as agonist
[10] = target: T1, Stimulator of interferon genes protein (Mus musculus); assay: Agonist activity at STING in mouse MEF cells assessed as increase in IL6 mRNA expression at 10 uM measured after 3 hrs by qRT-PCR analysis; assay type: cell-based; conditions: filed as agonist
[11] = target: T2, Stimulator of interferon genes protein; assay: Agonist activity at STING in human THP-1 cells harboring IRF-inducible luciferase reporter construct assessed as increase in relative fluorescence unit incubated for 12 hrs by Quanti-luc reagent based assay; assay type: cell-based
[12] = Lipophilicity, logP of compound by RP-HPLC analysis; assay type: physicochemical
[13] = target: T2, Stimulator of interferon genes protein; assay: Agonist activity at STING in human THP-1 cells assessed as increase in IL6 mRNA expression at 10 uM measured after 3 hrs by qRT-PCR analysis; assay type: cell-based; conditions: filed as agonist
[14] = Volume of distribution at steady state in Sprague-Dawley rat at 50 mg/kg, po measured for 1440 mins by LC-MS/MS analysis; assay type: ADME, organism-based; conditions: in vivo, 24 h
Mus musculus [15] = assay: Immunostimulatory activity in naive […] mouse implanted with mouse MC38 cells assessed as increase in CD69-positive NK cells in spleen at 30 mg/kg, po by FACS analysis (reference value: 4.7%); assay type: functional, MC-38
[16] = Protein binding in plasma (unknown origin) assessed as unbound fraction at 2 uM incubated for 4 hrs under shaking condition by rapid equilibrium dialysis method; assay type: ADME, cell-free
[17] = Toxicity in immunocompetent BALB/c mouse assessed as reduction in body weight at 30 mg/kg, po measured after 3 days; assay type: organism-based; conditions: in vivo, 72 h, time 3 day
[18] = target: T2, Stimulator of interferon genes protein; assay: Agonist activity at STING in human THP-1 cells harboring IRF-inducible luciferase reporter construct assessed as increase in TBK1 phosphorylation measured after 3 hrs by Western blot analysis; assay type: cell-based; conditions: filed as agonist, dose 10-50 µM, DDE = dose-dependent effect
[19] = Oral bioavailability in Sprague-Dawley rat at 50 mg/kg measured for 1440 mins by LC-MS/MS analysis; assay type: ADME, organism-based; conditions: in vivo
CYP3A4 = CYP3A4 (Homo sapiens, UniProt P08684); assay: Inhibition of recombinant CYP3A4 (unknown origin) using midazolam as substrate assessed as reduction in substrate hydroxylation at 10 uM incubated for 5 mins in presence of NADPH by LC-MS/MS analysis relative to control; assay type: ADME; conditions: recombinant CYP3A4, probe midazolam
CT26 = assay: Antitumor activity against mouse CT26 cells implanted in naive BALB/c mouse assessed as tumor growth regression at 20 mg/kg, po administered once every 5 days and measured after 30 days by digital caliper analysis relative to control; assay type: functional; conditions: time 30 day
Mus musculus [20] = assay: Immunostimulatory activity in naive […] mouse implanted with mouse MC38 cells assessed as increase in NK cells in spleen at 30 mg/kg, po by FACS analysis; assay type: functional, organism-based; conditions: MC-38
[21] = Half life in Sprague-Dawley rat at 5 mg/kg, iv measured for 1440 mins by LC-MS/MS analysis; assay type: ADME, organism-based; conditions: in vivo
MC-38 = assay: Antitumor activity against mouse MC38 cells implanted in C57BL/6 mouse assessed as tumor growth regression at 30 mg/kg, po administered once every 3 days and measured after 21 days by digital caliper analysis relative to control; assay type: functional; conditions: time 21 day
[22] = test system: Stimulator of interferon genes protein (Homo sapiens), Q86WV6 [UNDEFINED MUTATION]; assay: Binding affinity to recombinant human STING H232 variant expressed in Escherichia coli BL21 (DE3) assessed as thermal stabilization by measuring change in melting temperature at 2 mM incubated for 30 mins by SYPRO orange dye based differential scanning fluorimetry assay
[23] = AUC (0 to infinity) in Sprague-Dawley rat at 5 mg/kg, iv measured for 1440 mins by LC-MS/MS analysis; assay type: ADME, organism-based; set-up: dose 5 mg/kg, time 1440 min, route iv; conditions: in vivo
[24] = Stability in human plasma assessed as parent compound remaining at 1 uM incubated for 24 hrs in presence of NADPH by LC-MS/MS analysis; assay type: ADME, cell-free; conditions: read-out: Stability

T2 sequence (Q86WV6 whole entry): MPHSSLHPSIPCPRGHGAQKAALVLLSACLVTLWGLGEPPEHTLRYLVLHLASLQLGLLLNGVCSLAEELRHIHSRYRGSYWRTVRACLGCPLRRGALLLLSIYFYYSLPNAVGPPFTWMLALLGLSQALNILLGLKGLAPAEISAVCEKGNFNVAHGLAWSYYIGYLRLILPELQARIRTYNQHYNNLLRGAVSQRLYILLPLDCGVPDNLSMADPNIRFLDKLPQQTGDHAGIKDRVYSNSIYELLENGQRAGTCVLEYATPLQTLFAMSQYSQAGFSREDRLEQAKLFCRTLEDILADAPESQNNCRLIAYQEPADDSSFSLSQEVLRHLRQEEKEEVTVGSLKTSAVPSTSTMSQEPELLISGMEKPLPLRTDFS
Sequence of Stimulator of interferon genes protein (Homo sapiens), Q86WV6 [UNDEFINED MUTATION] (Q86WV6 whole entry, looked up, stated change not applied): as the sequence (Q86WV6 whole entry) above
Sequence of hERG (Q12809 whole entry): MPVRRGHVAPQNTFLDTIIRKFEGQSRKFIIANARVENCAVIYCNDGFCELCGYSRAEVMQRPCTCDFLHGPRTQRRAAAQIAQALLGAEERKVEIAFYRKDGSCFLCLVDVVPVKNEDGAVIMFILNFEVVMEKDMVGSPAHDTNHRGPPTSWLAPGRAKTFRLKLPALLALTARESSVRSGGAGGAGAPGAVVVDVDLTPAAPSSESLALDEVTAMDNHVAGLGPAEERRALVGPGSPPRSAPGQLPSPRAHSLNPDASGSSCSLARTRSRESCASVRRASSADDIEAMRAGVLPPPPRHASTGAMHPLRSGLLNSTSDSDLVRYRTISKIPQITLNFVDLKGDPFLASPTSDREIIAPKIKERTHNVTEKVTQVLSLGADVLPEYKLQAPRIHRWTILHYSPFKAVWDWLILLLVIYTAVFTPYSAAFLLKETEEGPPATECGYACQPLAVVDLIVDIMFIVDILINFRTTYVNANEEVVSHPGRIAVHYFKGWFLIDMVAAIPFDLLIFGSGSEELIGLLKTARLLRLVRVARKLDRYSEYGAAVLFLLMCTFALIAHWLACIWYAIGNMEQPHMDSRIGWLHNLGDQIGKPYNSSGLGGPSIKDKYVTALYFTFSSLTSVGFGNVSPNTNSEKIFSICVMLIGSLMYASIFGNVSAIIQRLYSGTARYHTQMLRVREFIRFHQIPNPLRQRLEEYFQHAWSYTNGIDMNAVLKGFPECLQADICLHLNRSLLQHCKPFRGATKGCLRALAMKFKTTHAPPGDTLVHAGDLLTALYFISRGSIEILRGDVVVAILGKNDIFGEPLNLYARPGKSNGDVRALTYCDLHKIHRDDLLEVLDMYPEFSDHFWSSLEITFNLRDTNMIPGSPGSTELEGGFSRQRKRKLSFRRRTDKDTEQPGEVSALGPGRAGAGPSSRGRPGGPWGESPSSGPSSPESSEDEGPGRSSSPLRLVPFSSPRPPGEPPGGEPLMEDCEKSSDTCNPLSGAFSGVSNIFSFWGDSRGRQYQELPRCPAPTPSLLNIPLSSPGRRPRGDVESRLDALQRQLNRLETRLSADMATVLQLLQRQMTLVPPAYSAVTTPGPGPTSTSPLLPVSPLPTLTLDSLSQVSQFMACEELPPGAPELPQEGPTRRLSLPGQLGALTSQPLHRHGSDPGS
Sequence of CYP3A4 (P08684 whole entry): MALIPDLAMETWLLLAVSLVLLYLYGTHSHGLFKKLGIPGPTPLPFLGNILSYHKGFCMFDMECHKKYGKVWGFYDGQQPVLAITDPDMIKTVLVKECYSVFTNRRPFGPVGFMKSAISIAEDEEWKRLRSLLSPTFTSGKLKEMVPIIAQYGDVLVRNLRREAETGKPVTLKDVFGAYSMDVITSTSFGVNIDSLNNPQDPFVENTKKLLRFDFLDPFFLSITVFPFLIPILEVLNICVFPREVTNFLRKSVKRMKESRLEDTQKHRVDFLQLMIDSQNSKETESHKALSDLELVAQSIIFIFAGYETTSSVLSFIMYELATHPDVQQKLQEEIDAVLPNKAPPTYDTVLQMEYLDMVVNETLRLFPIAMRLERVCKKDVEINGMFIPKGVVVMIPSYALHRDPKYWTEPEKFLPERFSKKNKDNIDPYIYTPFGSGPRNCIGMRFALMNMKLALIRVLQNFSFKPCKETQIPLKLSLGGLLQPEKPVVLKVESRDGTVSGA

CC[C@H](CC(=O)c1cc2cc(OC)c(OC)cc2[se]1)C(=O)O
Activity [1]: Active | Activity (4T1): 25.4% | inhibition at 5 min, 10 µM (hERG): -0.7% | Papp at 5 h [2]: 2.04 ×10⁻⁶ cm/s | Activity (Mus musculus [3]): Active | Activity (Mus musculus [4]): Active | remaining at 2 h, 1 µM [5]: 100% | Stability [6]: Stable | Activity (Mus musculus [7]): 94.2% | Cmax [8]: 58.2 µg/mL | Activity [9]: Active | Activity [10]: Active | EC50 [11]: 9.24 µM | logP [12]: 2.4 | Activity [13]: Active | Vdss [14]: 0.38 L/kg | Activity (Mus musculus [15]): 46.8% | Fu [16]: 0.07% | Activity [17]: Non-Toxic | Activity [18]: Dde | bioavailability [19]: 107% | inhibition at 5 min, 10 µM (CYP3A4): 13.5% | Activity (CT26): 100% | Activity (Mus musculus [20]): Active | half-life [21]: 1.04 h | Activity (MC-38): 100% | ΔTm [22]: 7.4 °C | AUC(0-inf) [23]: 29400 ng·h/mL | remaining at 24 h, 1 µM [24]: 98%
